The text below walks through data of PMC7160673, “A Degenerate Peptide Library Approach to Reveal Sequence Determinants of Methyllysine-Driven Protein Interactions” (Frontiers in Cell and Developmental Biology, 2020).

Common to all, as to type: binding
In one experiment the test system is 53BP1 TTD. As to the kind of experiment: Histone peptide microarray, 53BP1 TTD. To be noted: 53BP1 TTD hits, average signal per peptide. The essentials:
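Printed histone peptide arrays; hybridization buffer 25 mM HEPES pH 7.5 / 100 mM NaCl / 0.5% BSA / 0.1% NP-40. Washes PBS + 0.1% Tween-20, 3 × 5 min per step. Detection: anti-GST 1:2,000 → AlexaFluor 647 secondary 1:5,000.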

The test system of experiment [1] is Abcam #ab8895, anti-H3K4me1. As to the kind of experiment: Histone peptide microarray, Abcam ab8895. Particulars: Abcam ab8895 (anti-H3K4me1) hits, average signal per peptide.
Experiment [2] relates to ABClonal #A2355, anti-H3K4me1. As to the kind of experiment: Histone peptide microarray, ABclonal A2355. To be noted: Abclonal A2355 (anti-H3K4me1) hits. As for the experimental part: (§1) Peptide microarrays were fabricated using an Aushon 2470 microarrayer and used as described ([Cornett et al., 2017]) with the following modifications. Protein and antibody hybridization steps were performed in buffer containing 25 mM HEPES pH 7.5, 100 mM NaCl, 0.5% BSA (w/v), and 0.1% NP-40. Slides were washed 3 × 5 min in PBS supplemented with 0.1% Tween-20 between each hybridization step. Antibodies used were primary anti-GST (Sigma #7781, 1:2,000 dilution) and an AlexaFluor 647-labeled secondary antibody (Life Technologies A-21245, 1:5,000 dilution). […] Full lists of peptides queried by array analysis are in Supplementary Table S2.

Experiment [3] deals with Active Motif #39161, anti-H3K9me3. Kind of experiment: Histone peptide microarray, Active Motif 39161. Particulars: Active Motif 39161 (anti-H3K9me3) hits.
The subject of experiment [4] is Millipore #07-449, anti-H3K27me3. As to the kind of experiment: Histone peptide microarray, Millipore 07-449. To be noted: Millipore 07-449 (anti-H3K27me3) hits, average signal per peptide.
Another experiment has as its system CST 9733 (anti-H3K27me3). Kind of experiment: Histone peptide microarray, CST 9733. Particulars: histone peptide array signal normalized to the highest peptide average per subarray, hits; CST 9733 LOT:14 dilution 1:5,000. As for the experimental part:
as §1

Where no end group is shown, it is not given here. Me2a = asymmetric dimethyl on Arg; Peg = not defined here

As to “ARTK(N3)QTARKSTGGKAPRKQL-K(Biot)-NH2 [Peptide H3.1K4N3]”, the “Avg Signal” value in the experiment with 53BP1 TTD turned out to be 0.07618; in experiment [1], 0.03034; in experiment [2], 0.03523.

Regarding “Ac-SGRGK(Ac)GGKGLGKGGAKRHRK(Ac)VLR-Peg-Biot [Peptide H4K5acK20ac]”, the “Avg Signal” value is 0.0007556 in experiment [2] and 0.0005946 in experiment [3].

With “AR(Me2a)pTK(Me3)QTARK(Ac)STGGK(Ac)APRK(Ac)QL-K(Biot)-NH2 [H3.1R2me2aT3pK4me3K9acK14acK18ac]”, the “Avg Signal” value was 0.09934 in the experiment on 53BP1 TTD; 0.005728 in experiment [4]; 0.0005148 in the experiment on CST 9733 (anti-H3K27me3); 0.003812 in experiment [1]; 0.0001961 in experiment [3].

For “Ac-SGRGK(Ac)QGGKARAKAKTR-Peg-Biot [Peptide H2AK5ac]”, the “Avg Signal” value worked out at 0.06555 in the experiment with 53BP1 TTD, 0.04469 in experiment [1] and 0.0257 in experiment [2].

In the case of “ACitTKQTARKSTGGKAPRKQL-K(Biot)-NH2 [Peptide H3.1Cit2]”, the “Avg Signal” value was determined as 0.1308 in the experiment with 53BP1 TTD, 0.005497 in the experiment with CST 9733 (anti-H3K27me3), 0.01656 in experiment [1] and 0.002403 in experiment [3].

With “ATKAARKSAPATGGVK(Me)KPHRYRPG-GK(Biotin)-OH [Peptide H3.1K36me1]”, the “Avg Signal” value is 0.002073 in experiment [4], 0.0206 in experiment [1], 0.006039 in experiment [2] and 0.001641 in experiment [3].

In the case of “AR(Me)TK(Me3)QTARK(Ac)STGGK(Ac)APRK(Ac)QL-K(Biot)-NH2 [H3.1R2me1K4me3K9acK14acK18ac]”, the “Avg Signal” value amounted to 0.04917 in the experiment with 53BP1 TTD; 0.05381 in experiment [4]; 0.009005 in the experiment on CST 9733 (anti-H3K27me3); 0.01244 in experiment [1]; 0.006911 in experiment [3].

Take “Ac-SGRGK(Ac)GGK(Me)GLGK(Ac)GGAKRHRKVLR-Peg-Biot [H4K5acK8me1K12ac]”: the “Avg Signal” value in experiment [4] is recorded as 0.005126; in experiment [1], 0.003463; in experiment [2], 0.01786; in experiment [3], 0.01545.

In the case of “ARTK(Me)QTARKSTGGKAPRKQL-K(Biot)-NH2 [Peptide H3.1K4me1]”, the “Avg Signal” value was found to be 0.08871 in the experiment with 53BP1 TTD, 0.89 in experiment [1] and 0.7621 in experiment [2].

In the case of “Biot-Peg-GKKATQApSQEY-OH [Peptide H2A.XS139p]”, the “Avg Signal” value was 0.0003137 in experiment [4], 0.05956 in experiment [1] and 0.02695 in experiment [2].

Consider “ARTK(Me3)QTARKSTGGK(Ac)APRKQL-K(Biot)-NH2 [H3.1K4me3K14ac]”, for which the “Avg Signal” value was found to be 0.1175 in the experiment with 53BP1 TTD; 0.02658 in experiment [4]; 0.004624 with CST 9733 (anti-H3K27me3); 0.0003256 in experiment [1]; 0.009793 in experiment [3].

Consider “AR(Me)TK(Me3)QTARKSTGGKAPRKQL-K(Biot)-NH2 [H3.1R2me1K4me3]”, for which the “Avg Signal” value with 53BP1 TTD worked out at 0.08379; in experiment [4], 0.07195; with CST 9733 (anti-H3K27me3), 0.002343; in experiment [1], 0.01284.

As to “Ac-SGRGKGGK(Me)GLGKGGAKRHRKVLR-Peg-Biot [Peptide H4K8me1]”, the entries for the “Avg Signal” value in experiment [1], in experiment [2] and in experiment [3] were 0.01379, 0.02626 and 0.0007159, respectively.

For “ARTK(Ac)QTARKSTGGKAPRK(Ac)QL-K(Biot)-NH2 [H3.1K4acK18ac]”, the “Avg Signal” value amounted to 0.07704 in the experiment on 53BP1 TTD, 0.002862 in experiment [1], 0.001249 in experiment [2] and 0.0001961 in experiment [3].

On to “ARTK(Me2)QTARKSTGGKAPRKQL-K(Biot)-NH2 [Peptide H3.1K4me2]”, for which the “Avg Signal” value with 53BP1 TTD is 0.3009; in experiment [1], 0.3093; in experiment [2], 0.3078; in experiment [3], 0.001961.

Consider “Ac-SGRGK(Ac)QGGK(Ac)ARAK(Ac)AK(Ac)TR-Peg-Biot [H2AK5acK9acK13acK15ac]”, for which the “Avg Signal” value came to 0.0113 in the experiment on 53BP1 TTD, 0.001671 in experiment [4], 0.0056 in experiment [2] and 0.005245 in experiment [3].

As to “ARTKQTAR(Me2a)KSTGGKAPRKQL-Peg-Biot (chain 2 KSTGGKAPRKQL-{Peg-Biot}; not fully specified; reading uncertain) [Peptide H3.1R8me2a]”, the “Avg Signal” value was 0.06138 in experiment [1], 0.000963 in experiment [2] and 0.01209 in experiment [3].

For the substance “Ac-APRK(Ac)QLATK(Ac)AARK(Ac)pSAPSTGG-Peg-Biot [H3.3K18acK23acK27acS28p]”, the “Avg Signal” value amounted to 0.0009622 in experiment [4], 0.0001631 in experiment [2] and 0.004946 in experiment [3].

As to “Ac-APRKQLATK(Me)AARKSAPATGG-Peg-K(Biot)-NH2 [Peptide H3.1K23me1]”, the “Avg Signal” value in experiment [4] came out at 0.003618; in experiment [1], 0.124; in experiment [2], 0.3577; in experiment [3], 0.004448.

For “Ac-SGRGKGGKGLGK(Ac)GGAKRHRKVLR-Peg-Biot [Peptide H4K12ac]”, the “Avg Signal” value in the experiment with 53BP1 TTD turned out to be 0.1511; in the experiment with CST 9733 (anti-H3K27me3) it was 0.000354; in experiment [1] it was 0.001961; in experiment [3], 0.01336.

Turning to “ARTKQTARK(Ac)STGGK(Ac)APRK(Ac)QL-K(Biot)-NH2 [H3.1K9acK14acK18ac]”, the “Avg Signal” value with 53BP1 TTD is 0.1031; in experiment [1] it was 0.2691; in experiment [2], 0.01044; in experiment [3] it was 0.001438.

With “PEPAKSAPAPKK(Ac)GSK(Ac)K(Ac)AVTK(Ac)AQKK-Peg-Biot [H2BK12acK15acK16acK20ac]”, the “Avg Signal” value came out at 0.0003507 in experiment [2] and 0.009853 in experiment [3].

For the substance H3.1.1(1-32), the “Avg Signal” value in experiment [4] amounted to 0.003069; in experiment [1], 0.3398; in experiment [2], 0.04529.

On to “ATKAARKSAPATGGVK(Ac)KPHRYRPG-GK(Biotin)-OH [Peptide H3.1K36ac]”, for which the “Avg Signal” value in experiment [4] came out at 0.004604; in experiment [2], 0.001664; in experiment [3] it was 0.009457.

On to “Ac-IAQDFK(Me2)TDLRF-Peg-K(Biot)-NH2 [Peptide H3.1K79me2]”, for which the “Avg Signal” value with 53BP1 TTD is on record as 0.2119; in experiment [4] it was 0.002961; in experiment [2], 0.0001532.

For “Ac-IAQDFK(Me3)TDLRF-Peg-K(Biot)-NH2 [Peptide H3.1K79me3]”, the “Avg Signal” value in the experiment with 53BP1 TTD amounted to 0.03452; in experiment [1], 0.06064; in experiment [2], 0.03778.

On to “ARTK(Me)QTARK(Ac)STGGKAPRK(Ac)QL-K(Biot)-NH2 [H3.1K4me1K9acK18ac]”, for which the “Avg Signal” value was found to be 0.06582 with 53BP1 TTD, 0.7729 in experiment [1], 0.6625 in experiment [2] and 0.0008903 in experiment [3].

For the substance “Ac-SGRGK(Me)GGKGLGKGGAKRHRKVLR-Peg-Biot [Peptide H4K5me1]”, the “Avg Signal” value is given as 0.002242 in experiment [4], 0.01832 in experiment [1], 0.006523 in experiment [2] and 0.04055 in experiment [3].

Take “Ac-APRK(Me3)QLATKAARKSAPSTGGVK(Me3)KPHRY-GG-K(Biot)-NH2 [H3.3K18me3K36me3]”: the “Avg Signal” value with 53BP1 TTD worked out at 0.1772; in experiment [4], 0.2482; with CST 9733 (anti-H3K27me3) it was 0.04154; in experiment [1], 0.006536; in experiment [3], 0.4275.

For the substance “AR(Me2s)TK(Me3)QTARK(Ac)STGGK(Ac)APRK(Ac)QL-K(Biot)-NH2 [H3.1R2me2sK4me3K9acK14acK18ac]”, the “Avg Signal” value stood at 0.134 in the experiment on 53BP1 TTD, 0.02279 in experiment [4], 0.0007823 in the experiment on CST 9733 (anti-H3K27me3) and 0.02558 in experiment [3].

Consider “ARTKQTARK(Me2)STGGKAPRKQLATKAARK(Me)SAPAT-Peg-Biot [H3.1K9me2K27me1]”, for which the “Avg Signal” value in experiment [4] is 0.004141; in experiment [1] it was 0.3474; in experiment [2], 0.05183; in experiment [3] it was 0.02404.

On to “AR(Me2a)TK(Me3)QTARKpSTGGKAPRKQL-K(Biot)-NH2 [H3.1R2me2aK4me3S10p]”, for which the “Avg Signal” value with 53BP1 TTD worked out at 0.1482; in experiment [4] it was 0.02048; with CST 9733 (anti-H3K27me3), 0.01157; in experiment [1], 0.0003692; in experiment [3] it was 0.007954.

With “ATKAARKSAPATGGVK(Me2)KPHRYRPG-GK(Biotin)-OH [Peptide H3.1K36me2]”, the “Avg Signal” value in experiment [4] was 0.005826; in experiment [1], 0.1144; in experiment [2] it was 0.06205; in experiment [3], 0.01273.
